Experimental data taken from patent US8063026B2, “Method of palliating lower urinary tract infections by treatment with mannan oligosaccharides” (priority 2006, dated 2011).

System: UTI symptoms
Test: Treatment of UTI symptoms in a patient (case reports)
Type: in vivo, human
Settings: recurrent UTI episodes about 48 hours after sex, 1 tablet twice daily for five days
Method: A patient had been experiencing urinary tract infections since 1999. Episodes were very painful and invariably occurred about 48 hours after having sex. […] This pattern persisted for 6 years.
During an episode of UTI symptoms (urge to urinate; severe burning with urination; blood in urine), 100 mg MOS was administered to a patient (weighing approximately 50 kg) as a tablet (BioMOS® tablets, Alltech)-1 tablet before and after sex, plus three tablets per day.
Beginning during a symptom-free period, 100 mg MOS was administered to a patient (weighing approximately 50 kg) as a tablet (BioMOS® tablets, Alltech), once per day plus one pill with sex.
During a symptom-free period, 500 mg of MOS was administered as a capsule (capsules prepared from bulk CitriStim™, Archer Daniels Midland Alliance Nutrition, Inc., Quincy, Ill.; 1 or 2 capsules daily). […] Two capsules (CitriStim) were administered (three hours apart), followed 2 hours later by 100 mg MOS in tablet form (BioMOS® tablets, Alltech). […] Two MOS tablets were administered that morning (4 hours apart). In the late afternoon, a CitriStim capsule was administered, and one capsule was administered twice the following day.

Row | Compound | Relief of UTI symptoms
1 | O=C(O)c1cn(C2CC2)c2cc(N3CCNCC3)c(F)cc2c1=O [Cipro®, ciprofloxacin] | quickly relieve symptoms
2 | trimethoprim-sulfamethoxazole [Bactrin DS®] | quickly relieve symptoms
